Test: solvent given as SMILES

NC(=O)c1ccccc1O
Conditions | solvation free energy, 298 K [kcal/mol]
in C1CCOC1 | -13.2
in C1COCCO1 | -13
in CC(C)(C)O | -12.1
in CC(C)=O | -13
in CC(C)CCO | -11.9
in CC(C)CO | -11.9
in CC(C)O | -12.2
in CC(C)OCCO | -12.8
in CC(O)COC(C)(C)C | -12.6
in CCC(C)O | -12.2
in CCCC(C)O | -12.1
in CCCCCCCCCCO | -11.6
in CCCCCCCCO | -11.7
in CCCCCCCO | -11.8
in CCCCCCO | -12
in CCCCCO | -12
in CCCCO | -12.1
in CCCCOC(C)=O | -12.3
in CCCCOCCCC | -10.5
in CCCCOCCO | -12.6
in CCCO | -12.3
in CCCOC(C)=O | -12.4
in CCCOCCO | -12.8
in CCO | -12.5
in CCOC(C)=O | -12.6
in CCOCCO | -13
in CO | -12.7
in COC(C)=O | -12.8
in COC(C)CCO | -12.7
in Fc1ccccc1 | -10.6
in O | -10.4

ClC(Cl)(Cl)Br
Conditions | solvation free energy, 298 K [kcal/mol]
in CS(C)=O | -4.78

CC(=O)OC1CC(C)CCC1C(C)C (stereo unspecified)
Conditions | solvation free energy, 298 K [kcal/mol]
in O | -2.59

CC(C)Cl
Conditions | solvation free energy, 298 K [kcal/mol]
in C=CCCCCCCCCCCCCCC | -2.78
in O | -0.23

Cc1ccc(C(=O)N(C)C)cc1
Conditions | solvation free energy, 298 K [kcal/mol]
in O | -9.76

From the CombiSolv-Exp solvation set (Vermeire and Green 2021)
